These results are taken from PMC2587488 (Journal of pineal research, 2008).

Data set [1] relates to rat microsomal cytochrome P450s. The data set can be described thus: in vitro. The settings on record: microsomes, pH 7.4, inhibition of melatonin O-demethylation (NAS formation).
Data set [2] deals with mitochondrial cytochrome P450s. The data set can be described thus: in vitro. The note with it: rat, pH 7.4, inhibition of melatonin O-demethylation (NAS formation).
The test system of data set [3] is rat liver postmitochondrial supernatant. The settings on record: cited from earlier work.
In data set [4] the test system is human liver microsomes. The note with it: cited from earlier work.
In data set [5] the test system is NADH oxidase. The note with it: isolated rat liver mitochondria; cited from earlier work.
In data set [6] the test system is rat microsomal cytochrome P450s. The note with it: microsomes.
Data set [7] has as its system mitochondrial cytochrome P450s. The settings on record: mitochondria.
Data set [8] relates to CYP1A2. The settings on record: liver slices and microsomes of treated rats; cited from earlier work.
Setting [9] is: 6-HMel formation from melatonin.

Like-named read-outs stand apart in the source and are kept apart here.

One may read the inhibition as how much of the control response was suppressed. Read a low inhibition as a response near the control. On to `CCN(CC)C(=S)S` [Diethyldihydrocarbamate, diethyldithiocarbamate], for which the values for the inhibition at 60 min, 50 μM in data set [1] and in data set [2] were 38% and 74%, respectively.
`Cc1nc2c([nH]1)c(=O)n(C)c(=O)n2Cc1ccco1` [Furafylline, furafylline]: the “inhibition of the conversion of melatonin to 6-sulphatoxymelatonin” value in data set [3] is “inhibited markedly”. The inhibition at 60 min, 20 μM in data set [1] was determined as 27%; in data set [2] it was 63%.
Regarding `CC(=O)N1CCN(c2ccc(OCC3COC(Cn4ccnc4)(c4ccc(Cl)cc4Cl)O3)cc2)CC1` (stereo not shown) [Ketoconazole, ketoconazole], in data set [4], the “inhibition of melatonin metabolism” value is “only weak inhibitors”. Further, the “inhibition of NADH oxidase” value in data set [5] is reported as “dose-dependent inhibition”. Moreover, the inhibition at 60 min, 5 μM in data set [1] came out at 52%; in data set [2], 49%.
For the compound `COc1ccc2[nH]c([S+]([O-])Cc3ncc(C)c(OC)c3C)nc2c1` (stereo not shown) [Omeprazole, omeprazole], the inhibition at 60 min, 100 μM in data set [1] amounted to 78%; in data set [2] it was 81%.
For `C=C[C@H]1C[N@@]2CC[C@H]1C[C@@H]2[C@@H](O)c1ccnc2ccc(OC)cc12` [Quinidine, quinidine], the “inhibition of melatonin metabolism” value in data set [4] is recorded as “only weak inhibitors”. Further, the inhibition at 60 min, 5 μM in data set [1] was 38%; in data set [2], 33%.
On to `COc1ccc2[nH]cc(CCNC(C)=O)c2c1` [melatonin, N-acetyl-5-methoxytryptamine], for which the “Km1 (high affinity component)” value in data set [6] (setting [9]) was determined as 48.33 ± 9.17 µM; in data set [6] (NAS formation from melatonin) it was 25.86 ± 1.39 µM; in data set [7] (NAS formation from melatonin), 13.96 ± 2.37 µM. Also, the “Km2 (low affinity component)” value turned out to be 496.8 ± 53.78 µM in data set [6] (setting [9]), 953.3 ± 85.95 µM in data set [6] (NAS formation from melatonin) and 406.6 ± 19.84 µM in data set [7] (setting [9]).
As for `Nc1ccc(S(=O)(=O)Nc2ccnn2-c2ccccc2)cc1` [sulfaphenazole], the inhibition at 60 min, 10 μM in data set [2] came to 27%.
As to `O=c1cc(-c2ccccc2)oc2c1ccc1ccccc12` [α-naphthoflavone], in data set [8], the “increase in melatonin conversion to 6-sulphatoxymelatonin” value is recorded as 3 fold.
